In patent US20240091366A1, “NOVEL ACID-SENSITIVE APTAMER TRIPTOLIDE CONJUGATE AND APPLICATIONS” (priority 2022, published 2024):
Values joined by “and” are separate entries in the source; they are usually repeats but may differ in a detail not shown here. Equal values may be shown once.

Tests used:
[1] = test system: lung cancer cell line A549; test: In vivo antitumor activity, lung cancer xenograft in nude mice; design: species or system mouse; Tumor weight: unit not given here; conditions: A549 model, once every 2 days, 8 doses
Text: (§1) The following are the in vivo activity studies conducted in different tumor-bearing mice:
(§2) A PBS negative control group was set up.

[2] = test system: colon cancer cells HCT116; test: In vivo antitumor activity, colon cancer xenograft in nude mice; design: species or system mouse; Tumor weight: unit not given here; conditions: HCT116 model, once every 2 days, 8 doses
Text: as §1, §2

[3] = test system: breast cancer cell line MDA-MB-231; test: MTT assay, cell proliferation inhibition; type: cell-based; conditions: 48 h
Text: (§3) Material: aptamer triptolide conjugate (AS1411-TP). Triptolide (TP) was provided by Shanghai Yaji Biotechnology Co. Ltd; aptamer (AS1411) was obtained from Chengdu Pilot Drug Development Co. Ltd; trypsin, thiazolyl blue (MTT) (Biofroxx, Germany); dimethyl sulfoxide (DMSO) (MP Biomedicals, France); fetal bovine serum (FBS) (Newzerum, New Zealand); DMEM medium, RPMI1640 medium, Petri dishes, 96-well plates (Corning, USA); colon cancer cells HCT116, breast cancer cells MDA-MB-231, non-small-cell lung cancer cells A549, pancreatic cancer cells PANC-1, and hepatocellular carcinoma cells HepG2 were purchased from the Shanghai Cell Bank of the Chinese Academy of Sciences and preserved in the laboratory.
(§4) Take the tumor cells HCT116, MDA-MB-231, A549, PANC-1 and HepG2 cell lines from the liquid nitrogen tank, place them in a 37° C. water bath, wait for the frozen cells to melt into cell suspension, centrifuge the cells at 1000 r/min for 3 min, discard the supernatant, add 1 ml of fresh complete medium containing 10% fetal bovine serum and 1% double antibody to mix the cells, then add 5 ml of medium, gently and repeatedly blowing the cells with a pipette gun to make them mix well. Then add 5 ml of medium, blow the cells gently and repeatedly with a pipette gun to mix them well, and finally transfer the cell suspension to a […] and label the cell name, cell number, date of resuscitation and the operator's name, and place it in a cell culture incubator for cultivation. (HCT116, PANC-1 and HepG2 cell lines were cultured in DMEM medium, while MDA-MB-231 cell line and A549 cell line were cultured in RPMI1640 medium).
(§5) Take HCT116, MDA-MB-231, A549, PANC-1, HepG2 cells with good growth status, remove the medium, add 1 ml of sterile PBS to wash, add 1.5 ml of trypsin to digest the cells, about 2 min later the cells become round and fall off, add 1.5 ml of medium to terminate the digestion, transfer it to centrifugal tube, centrifuge at 1000 r/min for 3 min, discard the supernatant, add 1 ml of fresh medium to resuspend, then add fresh medium for 1:3 distribution to other culture dishes, and label the date of transmission and the number of generations. Place in the cell culture incubator for cultivation.
(§6) Take HCT116, MDA-MB-231, A549, PANC-1, HepG2 cells with good growth status, by the same operation as the cell passaging experiment, after cell resuspension, cell counting with hemocyte counting plate, with 2500 cells/well, plant in 96-well plate, after 24 h of cell culture, remove the original medium, add medium containing different concentrations of drugs and continue to cultivate for 48 hours. After 24 h of cell culture, the original medium was removed and the medium containing different concentrations of drugs was added to continue the culture for 48 hours. […] The above steps were repeated three times.

[4] = test system: pancreatic cancer cell line PANC-1; test: MTT assay, cell proliferation inhibition; type: cell-based; conditions: Homo sapiens, 48 h
Text: as §3, §4, §5, §6

CC(C)[C@]12O[C@H]1[C@@H]1O[C@]13[C@]1(O[C@H]1C[C@H]1C4=C(CC[C@@]13C)C(=O)OC4)[C@@H]2O [TP, Triptolide] was tested, and the RTV ([1]; 10 μM tail vein) was 26.1 ± 0.09, the “T/C (%)” value ([1]; 10 μM tail vein) was 51.81% and the “Tumor inhibition rate (%)” value ([1]; 10 μM tail vein) was 27.27%. For the same molecule, the Tumor weight ([1]; 10 μM tail vein) was 2.47 ± 0.08, the RTV ([1]; 30 μM tail vein) was 17.91 ± 0.27 and the “T/C (%)” value ([1]; 30 μM tail vein) was 31.59%. The “Tumor inhibition rate (%)” value ([1]; 30 μM tail vein) was 48.48%, the Tumor weight ([1]; 30 μM tail vein) was 1.79 ± 0.19 and the RTV ([1]; 50 μM tail vein) was 10.92 ± 0.15. For the same molecule, the “T/C (%)” value ([1]; 50 μM tail vein) was 89.93%, the “Tumor inhibition rate (%)” value ([1]; 50 μM tail vein) was 63.64% and the Tumor weight ([1]; 50 μM tail vein) was 1.29 ± 0.27. The RTV ([2]; 10 μM 100 μL tail vein) was 23.31 ± 0.31, the “T/C (%)” value ([2]; 10 μM 100 μL tail vein) was 65.57% and the “Tumor inhibition rate (%)” value ([2]; 10 μM 100 μL tail vein) was 25.80%. The Tumor weight ([2]; 10 μM 100 μL tail vein) was 2.31 ± 0.24, the RTV ([2]; 30 μM 100 μL tail vein) was 16.68 ± 0.19 and the “T/C (%)” value ([2]; 30 μM 100 μL tail vein) was 46.92%. The “Tumor inhibition rate (%)” value ([2]; 30 μM 100 μL tail vein) was 45.16%, the Tumor weight ([2]; 30 μM 100 μL tail vein) was 1.76 ± 0.13 and the RTV ([2]; 50 μM 100 μL tail vein) was 10.09 ± 0.28. For the same molecule, the “T/C (%)” value ([2]; 50 μM 100 μL tail vein) was 28.38%, the “Tumor inhibition rate (%)” value ([2]; 50 μM 100 μL tail vein) was 64.51% and the Tumor weight ([2]; 50 μM 100 μL tail vein) was 1.11 ± 0.25. For the same molecule, the inhibition at 0.0031 µM ([3]; Homo sapiens, MDA-MB-231, 48 h, MDA-MB-231, 3.1 nM, samples 1-3, read-out: cell proliferation inhibition rate) was 14.6%, the inhibition at 0.0063 µM ([3]; Homo sapiens, MDA-MB-231, 48 h, MDA-MB-231, 6.3 nM, samples 1-3, read-out: cell proliferation inhibition rate) was 25.7% and the inhibition at 0.0125 µM ([3]; Homo sapiens, MDA-MB-231, 48 h, MDA-MB-231, 12.5 nM, samples 1-3, read-out: cell proliferation inhibition rate) was 31.7%. For the same molecule, the inhibition at 0.025 µM ([3]; Homo sapiens, MDA-MB-231, 48 h, MDA-MB-231, 25.0 nM, samples 1-3, read-out: cell proliferation inhibition rate) was 42.1%, the inhibition at 0.05 µM ([3]; Homo sapiens, MDA-MB-231, 48 h, MDA-MB-231, 50.0 nM, samples 1-3, read-out: cell proliferation inhibition rate) was 71.5% and the inhibition at 0.1 µM ([3]; Homo sapiens, MDA-MB-231, 48 h, MDA-MB-231, 100.0 nM, samples 1-3, read-out: cell proliferation inhibition rate) was 83%. For the same molecule, the inhibition at 0.2 µM ([3]; Homo sapiens, MDA-MB-231, 48 h, MDA-MB-231, 200.0 nM, samples 1-3, read-out: cell proliferation inhibition rate) was 98.1%, the IC50 ([3]; Homo sapiens, breast cancer cells MDA-MB-231, MTT) was 0.0224 ± 0.00024 µM and the “cell proliferation inhibition rate” value ([3]; MDA-MB-231, 3.1 nM, samples 1-3, 0.0031 µM) was 11.4171 and 14.3285. For the same molecule, the “cell proliferation inhibition rate” value ([3]; MDA-MB-231, 6.3 nM, samples 1-3, 0.0063 µM) was 23.5657 and 26.9811, the “cell proliferation inhibition rate” value ([3]; MDA-MB-231, 12.5 nM, samples 1-3, 0.0125 µM) was 36.7429 and 35.2571 and the “cell proliferation inhibition rate” value ([3]; MDA-MB-231, 25.0 nM, samples 1-3, 0.025 µM) was 49.4400 and 45.9563. For the same molecule, the “cell proliferation inhibition rate” value ([3]; MDA-MB-231, 50.0 nM, samples 1-3, 0.05 µM) was 73.2000 and 76.9811, the “cell proliferation inhibition rate” value ([3]; MDA-MB-231, 100.0 nM, samples 1-3, 0.1 µM) was 86.0800 and 88.6718 and the “cell proliferation inhibition rate” value ([3]; MDA-MB-231, 200.0 nM, samples 1-3, 0.2 µM) was 94.2971 and 93.2186. For the same molecule, the inhibition at 0.0031 µM ([4]; PANC-1, 48 h, PANC-1, 3.1 nM, samples 1-3, read-out: cell proliferation inhibition rate) was 31.2%, the inhibition at 0.0063 µM ([4]; PANC-1, 48 h, PANC-1, 6.3 nM, samples 1-3, read-out: cell proliferation inhibition rate) was 36% and the inhibition at 0.0125 µM ([4]; PANC-1, 48 h, PANC-1, 12.5 nM, samples 1-3, read-out: cell proliferation inhibition rate) was 49.2%. For the same molecule, the inhibition at 0.025 µM ([4]; PANC-1, 48 h, PANC-1, 25.0 nM, samples 1-3, read-out: cell proliferation inhibition rate) was 59%, the inhibition at 0.05 µM ([4]; PANC-1, 48 h, PANC-1, 50.0 nM, samples 1-3, read-out: cell proliferation inhibition rate) was 64.8% and the inhibition at 0.1 µM ([4]; PANC-1, 48 h, PANC-1, 100.0 nM, samples 1-3, read-out: cell proliferation inhibition rate) was 80.3%. It also gave an inhibition at 0.2 µM ([4]; PANC-1, 48 h, PANC-1, 200.0 nM, samples 1-3, read-out: cell proliferation inhibition rate) of 93% and an IC50 ([4]; pancreatic cancer cells PANC-1, MTT) of 0.0144 ± 9e-05 µM.
